Reference: the NIST ThermoML archive (doi:10.1021/je1003065)
± gives the expanded uncertainty stated by the source.

Assay: mn = molality of the nth substance listed, in mol/kg
Details: Liquid, Vibrating tube method

[Br-].[Li+] [lithium bromide] + CCO
Details	mass density [kg/m3]
353.15 K, 39784 kPa, m1 = 0.9499	834.79 ± 1.7
353.15 K, 39945 kPa, m1 = 2.833	939.73 ± 1.9
353.15 K, 39986 kPa, m1 = 0.2335	790.37 ± 1.6
353.15 K, 40152 kPa, m1 = 0.5972	813.43 ± 1.7
353.15 K, 49925 kPa, m1 = 0.9499	842.49 ± 1.7
353.15 K, 49993 kPa, m1 = 0.5972	821.26 ± 1.7
353.15 K, 59926 kPa, m1 = 0.9499	849.56 ± 1.8
353.15 K, 60014 kPa, m1 = 0.2335	805.45 ± 1.7
353.15 K, 60014 kPa, m1 = 2.833	952.95 ± 1.9
353.15 K, 60225 kPa, m1 = 0.5972	828.81 ± 1.7
353.15 K, 69845 kPa, m1 = 0.9499	856.11 ± 1.8
353.15 K, 69979 kPa, m1 = 0.5972	835.44 ± 1.8
353.15 K, 79924 kPa, m1 = 0.9499	862.38 ± 1.8
353.15 K, 79968 kPa, m1 = 2.833	964.64 ± 1.9
353.15 K, 80004 kPa, m1 = 0.2335	818.76 ± 1.8
353.15 K, 80139 kPa, m1 = 0.5972	841.77 ± 1.8
353.15 K, 90021 kPa, m1 = 0.9499	868.33 ± 1.8
353.15 K, 99895 kPa, m1 = 2.833	975.38 ± 2
353.15 K, 99925 kPa, m1 = 0.9499	873.94 ± 1.9
353.15 K, 99987 kPa, m1 = 0.2335	829.93 ± 1.8
353.16 K, 1827 kPa, m1 = 2.272	878.19 ± 1.8
353.16 K, 2037 kPa, m1 = 0.5972	777.89 ± 1.6
353.16 K, 5076 kPa, m1 = 2.272	881.19 ± 1.8
353.16 K, 30024 kPa, m1 = 2.833	932.51 ± 1.9
353.16 K, 50031 kPa, m1 = 0.2335	798.55 ± 1.7
353.16 K, 69784 kPa, m1 = 2.833	958.82 ± 1.9
353.16 K, 89993 kPa, m1 = 0.5972	847.35 ± 1.8
353.17 K, 10149 kPa, m1 = 0.5972	786.15 ± 1.6
353.17 K, 70025 kPa, m1 = 0.2335	812.93 ± 1.7
353.18 K, 100098 kPa, m1 = 0.5972	852.48 ± 1.8
353.2 K, 79893 kPa, m1 = 3.368	991.32 ± 2
353.2 K, 89986 kPa, m1 = 3.368	996.68 ± 2
353.2 K, 99526 kPa, m1 = 3.368	1001.5 ± 2
353.21 K, 1063 kPa, m1 = 3.368	935.92 ± 1.9
353.21 K, 4909 kPa, m1 = 3.368	939.35 ± 1.9
353.21 K, 10311 kPa, m1 = 3.368	944.02 ± 1.9
353.21 K, 30003 kPa, m1 = 3.368	959.64 ± 1.9
353.21 K, 40073 kPa, m1 = 3.368	966.87 ± 1.9
353.21 K, 49925 kPa, m1 = 3.368	973.5 ± 1.9
353.21 K, 59786 kPa, m1 = 3.368	979.72 ± 2
353.21 K, 69928 kPa, m1 = 3.368	985.74 ± 2
353.22 K, 19643 kPa, m1 = 3.368	951.68 ± 1.9
373.11 K, 79585 kPa, m1 = 2.272	924.75 ± 1.9
373.12 K, 2208 kPa, m1 = 3.368	920.02 ± 1.8
373.12 K, 5044 kPa, m1 = 3.368	922.8 ± 1.9
373.12 K, 19844 kPa, m1 = 3.368	936.43 ± 1.9
373.12 K, 59597 kPa, m1 = 2.272	911.69 ± 1.9
373.12 K, 69993 kPa, m1 = 2.272	918.69 ± 1.9
373.13 K, 10014 kPa, m1 = 3.368	927.55 ± 1.9
373.13 K, 20555 kPa, m1 = 0.5972	780.15 ± 1.6
373.13 K, 69957 kPa, m1 = 0.2335	799.09 ± 1.7
373.14 K, 2369 kPa, m1 = 1.462	814.46 ± 1.6
373.14 K, 2757 kPa, m1 = 0.5972	759.44 ± 1.5
373.14 K, 10024 kPa, m1 = 0.2335	743.18 ± 1.5
373.14 K, 10201 kPa, m1 = 0.5972	767.99 ± 1.6
373.14 K, 29963 kPa, m1 = 3.368	944.93 ± 1.9
373.14 K, 29993 kPa, m1 = 0.5972	788.87 ± 1.6
373.14 K, 39934 kPa, m1 = 3.368	952.72 ± 1.9
373.14 K, 49924 kPa, m1 = 3.368	960.01 ± 1.9
373.14 K, 60080 kPa, m1 = 3.368	966.95 ± 1.9
373.14 K, 69925 kPa, m1 = 3.368	973.28 ± 2
373.14 K, 79738 kPa, m1 = 0.5972	829.02 ± 1.8
373.14 K, 80004 kPa, m1 = 0.2335	806.27 ± 1.8
373.14 K, 80063 kPa, m1 = 3.368	979.45 ± 2
373.14 K, 89993 kPa, m1 = 3.368	985.2 ± 2
373.14 K, 89994 kPa, m1 = 2.272	930.92 ± 1.9
373.14 K, 99876 kPa, m1 = 3.368	990.71 ± 2
373.15 K, 1026 kPa, m1 = 0.9499	780.35 ± 1.6
373.15 K, 1235 kPa, m1 = 0.2335	732.64 ± 1.5
373.15 K, 1415 kPa, m1 = 2.833	892.25 ± 1.8
373.15 K, 5002 kPa, m1 = 2.833	895.82 ± 1.8
373.15 K, 5004 kPa, m1 = 0.2335	737.23 ± 1.5
373.15 K, 5019 kPa, m1 = 1.462	817.48 ± 1.6
373.15 K, 5412 kPa, m1 = 0.9499	785.62 ± 1.6
373.15 K, 10004 kPa, m1 = 2.833	900.66 ± 1.8
373.15 K, 10068 kPa, m1 = 0.9499	790.99 ± 1.6
373.15 K, 19935 kPa, m1 = 0.9499	801.67 ± 1.6
373.15 K, 19957 kPa, m1 = 2.833	909.82 ± 1.8
373.15 K, 19985 kPa, m1 = 0.2335	754.93 ± 1.5
373.15 K, 29956 kPa, m1 = 2.833	918.4 ± 1.8
373.15 K, 29974 kPa, m1 = 0.9499	811.66 ± 1.6
373.15 K, 39236 kPa, m1 = 0.9499	820.14 ± 1.7
373.15 K, 39984 kPa, m1 = 2.833	926.44 ± 1.9
373.15 K, 40001 kPa, m1 = 0.2335	774.75 ± 1.6
373.15 K, 49979 kPa, m1 = 2.272	904.77 ± 1.8
373.15 K, 50002 kPa, m1 = 2.833	933.93 ± 1.9
373.15 K, 50023 kPa, m1 = 0.9499	829.23 ± 1.7
373.15 K, 59924 kPa, m1 = 2.833	940.87 ± 1.9
373.15 K, 59926 kPa, m1 = 0.9499	836.92 ± 1.7
373.15 K, 59977 kPa, m1 = 1.462	867.61 ± 1.8
373.15 K, 59987 kPa, m1 = 0.2335	791.31 ± 1.7
373.15 K, 69784 kPa, m1 = 2.833	947.33 ± 1.9
373.15 K, 69895 kPa, m1 = 0.9499	844.11 ± 1.8
373.15 K, 69979 kPa, m1 = 1.462	874.66 ± 1.8
373.15 K, 69994 kPa, m1 = 0.5972	822.13 ± 1.7
373.15 K, 79936 kPa, m1 = 0.9499	850.88 ± 1.8
373.15 K, 80021 kPa, m1 = 2.833	953.61 ± 1.9
373.15 K, 89926 kPa, m1 = 2.833	959.33 ± 1.9
373.15 K, 89934 kPa, m1 = 0.5972	835.63 ± 1.8
373.15 K, 89945 kPa, m1 = 0.9499	857.23 ± 1.8
373.15 K, 89956 kPa, m1 = 0.2335	812.23 ± 1.8
373.15 K, 99845 kPa, m1 = 2.833	964.74 ± 2
373.15 K, 99866 kPa, m1 = 0.5972	840.98 ± 1.8
373.15 K, 99874 kPa, m1 = 0.2335	817.91 ± 1.8
373.15 K, 99968 kPa, m1 = 0.9499	863.3 ± 1.9
